Measured values from ChEMBL document CHEMBL6078622, “Enhancing outer membrane permeability of tetracycline antibiotics in P. aeruginosa using TOB-CIP conjugates” (RSC Med Chem, 2024).
Calls of active or inactive are those of the source. The calls are words filed in the database; no cut-off is given here.

Legend:
[1] = system: Pseudomonas aeruginosa; assay: Antibacterial activity against Pseudomonas aeruginosa PAO1 assessed as inhibition of visible bacterial growth by CLSI based broth-microdilution method; assay type: functional
[2] = system: Acinetobacter baumannii; assay: Antibacterial activity against Acinetobacter baumannii ATCC 17978 assessed as inhibition of visible bacterial growth by CLSI based broth-microdilution method; assay type: functional
[3] = system: Pseudomonas aeruginosa; assay: Synergistic antibacterial activity against Pseudomonas aeruginosa PAO1 assessed as fold change in doxycycline MIC by checkerboard analysis relative to doxycycline alone; assay type: functional
[4] = system: Pseudomonas aeruginosa; assay: Synergistic antibacterial activity against Pseudomonas aeruginosa PA262 in presence of doxycycline by checkerboard assay; assay type: functional
[5] = system: Pseudomonas aeruginosa; assay: Synergistic antibacterial activity against Pseudomonas aeruginosa PA262 in presence of tigecycline by checkerboard assay; assay type: functional
[6] = system: Pseudomonas aeruginosa; assay: Synergistic antibacterial activity against Pseudomonas aeruginosa PA264 in presence of minocycline by checkerboard assay; assay type: functional
[7] = system: Pseudomonas aeruginosa; assay: Synergistic antibacterial activity against Pseudomonas aeruginosa PA264 in presence of doxycycline by checkerboard assay; assay type: functional
[8] = system: Pseudomonas aeruginosa; assay: Synergistic antibacterial activity against Pseudomonas aeruginosa PA264 in presence of eravacycline by checkerboard assay; assay type: functional
[9] = system: Pseudomonas aeruginosa; assay: Synergistic antibacterial activity against Pseudomonas aeruginosa PA100036 in presence of doxycycline by checkerboard assay; assay type: functional
[10] = system: Pseudomonas aeruginosa; assay: Synergistic antibacterial activity against Pseudomonas aeruginosa PA100036 in presence of eravacycline by checkerboard assay; assay type: functional
[11] = system: Pseudomonas aeruginosa; assay: Synergistic antibacterial activity against Pseudomonas aeruginosa PA114228 in presence of doxycycline by checkerboard assay; assay type: functional
[12] = system: Pseudomonas aeruginosa; assay: Synergistic antibacterial activity against Pseudomonas aeruginosa PA114228 in presence of tigecycline by checkerboard assay; assay type: functional
[13] = system: Pseudomonas aeruginosa; assay: Synergistic antibacterial activity against Pseudomonas aeruginosa PA114228 in presence of eravacycline by checkerboard assay; assay type: functional
[14] = system: Pseudomonas aeruginosa; assay: Synergistic antibacterial activity against Pseudomonas aeruginosa PA101243 in presence of minocycline by checkerboard assay; assay type: functional
[15] = system: Pseudomonas aeruginosa; assay: Synergistic antibacterial activity against Pseudomonas aeruginosa PA095 in presence of eravacycline by checkerboard assay; assay type: functional
[16] = system: Pseudomonas aeruginosa; assay: Synergistic antibacterial activity against Pseudomonas aeruginosa PA200 in presence of doxycycline by checkerboard assay; assay type: functional
[17] = system: Pseudomonas aeruginosa; assay: Synergistic antibacterial activity against Pseudomonas aeruginosa PA200 in presence of eravacycline by checkerboard assay; assay type: functional
[18] = system: Pseudomonas aeruginosa; assay: Antibacterial activity against Pseudomonas aeruginosa PA259 assessed as doxycycline MIC by CLSI based broth-microdilution method; assay type: functional
[19] = system: Pseudomonas aeruginosa; assay: Antibacterial activity against Pseudomonas aeruginosa PA259 assessed as eravacycline MIC by CLSI based broth-microdilution method; assay type: functional
[20] = system: Pseudomonas aeruginosa; assay: Antibacterial activity against Pseudomonas aeruginosa PA262 assessed as minocycline MIC by CLSI based broth-microdilution method; assay type: functional
[21] = system: Pseudomonas aeruginosa; assay: Antibacterial activity against Pseudomonas aeruginosa PA262 assessed as tigecycline MIC by CLSI based broth-microdilution method; assay type: functional
[22] = system: Pseudomonas aeruginosa; assay: Antibacterial activity against Pseudomonas aeruginosa PA262 assessed as eravacycline MIC by CLSI based broth-microdilution method; assay type: functional
[23] = system: Pseudomonas aeruginosa; assay: Antibacterial activity against Pseudomonas aeruginosa PA100036 assessed as doxycycline MIC by CLSI based broth-microdilution method; assay type: functional
[24] = system: Pseudomonas aeruginosa; assay: Antibacterial activity against Pseudomonas aeruginosa PA114228 assessed as minocycline MIC by CLSI based broth-microdilution method; assay type: functional
[25] = system: Pseudomonas aeruginosa; assay: Antibacterial activity against Pseudomonas aeruginosa PA114228 assessed as doxycycline MIC by CLSI based broth-microdilution method; assay type: functional
[26] = system: Pseudomonas aeruginosa; assay: Antibacterial activity against Pseudomonas aeruginosa PA114228 assessed as tigecycline MIC by CLSI based broth-microdilution method; assay type: functional
[27] = system: Pseudomonas aeruginosa; assay: Antibacterial activity against Pseudomonas aeruginosa PA114228 assessed as eravacycline MIC by CLSI based broth-microdilution method; assay type: functional
[28] = system: Pseudomonas aeruginosa; assay: Antibacterial activity against Pseudomonas aeruginosa PA101243 assessed as minocycline MIC by CLSI based broth-microdilution method; assay type: functional
[29] = system: Pseudomonas aeruginosa; assay: Antibacterial activity against Pseudomonas aeruginosa PA101243 assessed as tigecycline MIC by CLSI based broth-microdilution method; assay type: functional
[30] = system: Pseudomonas aeruginosa; assay: Antibacterial activity against Pseudomonas aeruginosa PA200 assessed as minocycline MIC by CLSI based broth-microdilution method; assay type: functional
[31] = system: Pseudomonas aeruginosa; assay: Synergistic antibacterial activity against Pseudomonas aeruginosa PA262 assessed as fractional inhibitory concentration index in presence of doxycycline by checkerboard assay; assay type: functional
[32] = system: Pseudomonas aeruginosa; assay: Synergistic antibacterial activity against Pseudomonas aeruginosa PA264 assessed as fractional inhibitory concentration index in presence of eravacycline by checkerboard assay; assay type: functional
[33] = system: Pseudomonas aeruginosa; assay: Synergistic antibacterial activity against Pseudomonas aeruginosa PA100036 assessed as fractional inhibitory concentration index in presence of tigecycline by checkerboard assay; assay type: functional
[34] = system: Pseudomonas aeruginosa; assay: Synergistic antibacterial activity against Pseudomonas aeruginosa PA114228 assessed as fractional inhibitory concentration index in presence of eravacycline by checkerboard assay; assay type: functional
[35] = system: Pseudomonas aeruginosa; assay: Synergistic antibacterial activity against Pseudomonas aeruginosa PA101243 assessed as fractional inhibitory concentration index in presence of minocycline by checkerboard assay; assay type: functional
[36] = system: Pseudomonas aeruginosa; assay: Synergistic antibacterial activity against Pseudomonas aeruginosa PA095 assessed as fractional inhibitory concentration index in presence of tigecycline by checkerboard assay; assay type: functional
[37] = system: Pseudomonas aeruginosa; assay: Synergistic antibacterial activity against Pseudomonas aeruginosa PA095 assessed as fractional inhibitory concentration index in presence of eravacycline by checkerboard assay; assay type: functional
[38] = system: Pseudomonas aeruginosa; assay: Synergistic antibacterial activity against Pseudomonas aeruginosa PA200 assessed as fractional inhibitory concentration index in presence of tigecycline by checkerboard assay; assay type: functional
[39] = system: Pseudomonas aeruginosa; assay: Synergistic antibacterial activity against Pseudomonas aeruginosa PA264 assessed as fold change in eravacycline MIC by CLSI based broth-microdilution method relative to eravacycline alone; assay type: functional
[40] = system: Pseudomonas aeruginosa; assay: Synergistic antibacterial activity against Pseudomonas aeruginosa PA100036 assessed as fold change in minocycline MIC by CLSI based broth-microdilution method relative to minocycline alone; assay type: functional
[41] = system: Pseudomonas aeruginosa; assay: Synergistic antibacterial activity against Pseudomonas aeruginosa PA100036 assessed as fold change in doxycycline MIC by CLSI based broth-microdilution method relative to doxycycline alone; assay type: functional
[42] = system: Pseudomonas aeruginosa; assay: Synergistic antibacterial activity against Pseudomonas aeruginosa PA114228 assessed as fold change in doxycycline MIC by CLSI based broth-microdilution method relative to doxycycline alone; assay type: functional
[43] = system: Pseudomonas aeruginosa; assay: Synergistic antibacterial activity against Pseudomonas aeruginosa PA114228 assessed as fold change in eravacycline MIC by CLSI based broth-microdilution method relative to eravacycline alone; assay type: functional
[44] = system: Pseudomonas aeruginosa; assay: Synergistic antibacterial activity against Pseudomonas aeruginosa PA095 assessed as fold change in minocycline MIC by CLSI based broth-microdilution method relative to minocycline alone; assay type: functional
[45] = system: Pseudomonas aeruginosa; assay: Synergistic antibacterial activity against Pseudomonas aeruginosa PA095 assessed as fold change in eravacycline MIC by CLSI based broth-microdilution method relative to eravacycline alone; assay type: functional
[46] = system: Pseudomonas aeruginosa; assay: Antibacterial activity against Pseudomonas aeruginosa PAO1 assessed as inhibition of bacterial growth by measuring fold change in MIC in presence of 10 % fetal bovine serum by CLSI protocol based assay; assay type: functional
[47] = system: Pseudomonas aeruginosa; assay: Antibacterial activity against Pseudomonas aeruginosa PA264 assessed as reduction in bacterial load incubated for 2 hrs in presence of eravacycline by time kill assay; assay type: functional, organism-based

- MIC [1]: > 128 µg/mL
- MIC [2]: > 128 µg/mL
- MIC [4]: 8 µg/mL
- MIC [5]: 8 µg/mL
- MIC [6]: 8 µg/mL
- MIC [7]: 8 µg/mL
- MIC [8]: 8 µg/mL
- MIC [9]: 8 µg/mL
- MIC [10]: 8 µg/mL
- MIC [11]: 8 µg/mL
- MIC [12]: 8 µg/mL
- MIC [13]: 8 µg/mL
- MIC [14]: 8 µg/mL
- MIC [15]: 2 µg/mL
- MIC [16]: 8 µg/mL
- MIC [17]: 8 µg/mL
- MIC [18]: 0.5 µg/mL
- MIC [19]: 0.062 µg/mL
- MIC [20]: 2 µg/mL
- MIC [21]: 2 µg/mL
- MIC [22]: 1 µg/mL
- MIC [23]: 1 µg/mL
- MIC [24]: 64 µg/mL
- MIC [25]: 32 µg/mL
- MIC [26]: 16 µg/mL
- MIC [27]: 4 µg/mL
- MIC [28]: 2 µg/mL
- MIC [29]: 4 µg/mL
- MIC [30]: 1 µg/mL
Structure (SMILES): Cl.Cl.Cl.Cl.Cl.Cl.NC[C@H]1O[C@H](O[C@H]2[C@H](OCCCCCCCCCCCCNC(=O)c3cn(C4CC4)c4cc(N5CCNCC5)c(F)cc4c3=O)[C@@H](O[C@H]3O[C@H](CO)[C@@H](O)[C@H](N)[C@H]3O)[C@H](N)C[C@@H]2N)[C@H](N)C[C@@H]1O
- fold change (FC) [3]: 64
- fractional inhibitory concentration index (FICI) [31]: 0.002
- fractional inhibitory concentration index (FICI) [32]: 0.008
- fractional inhibitory concentration index (FICI) [33]: 0.002
- fractional inhibitory concentration index (FICI) [34]: 0.5
- fractional inhibitory concentration index (FICI) [35]: 0.25
- fractional inhibitory concentration index (FICI) [36]: 0.265
- fractional inhibitory concentration index (FICI) [37]: 0.265
- fractional inhibitory concentration index (FICI) [38]: 0.187
- fold change (FC) [39]: 64
- fold change (FC) [40]: 256
- fold change (FC) [41]: 128
- fold change (FC) [42]: 128
- fold change (FC) [43]: 256
- fold change (FC) [44]: 8
- fold change (FC) [45]: 4
- fold change (FC) [46]: >512
- Activity [47]: Active
